Data as given in publication PMC5100903, “Tissue Kallikrein Inhibitors Based on the Sunflower Trypsin Inhibitor Scaffold – A Potential Therapeutic Intervention for Skin Diseases” (PLoS ONE, 2016).
Where two headings read alike, the source gives them in different places. Positions of bridges follow the written chain, without caps; N, C: chain ends. Residues, ends and D or L forms follow the SMILES beside them.

How the values were obtained:
Assay in all cases: biochemical
KLK5 = target: T1, KLK5 (Homo sapiens, UniProt Q9Y337); format: binding; settings: for Stoichiometry (N) / ΔH / ΔS / ΔG / Ka: ITC; for ΔG: 25°C; for Ka: 25°C (Table S2, unit not given)
T1 construct: purchased Novoprotein
T1 sequence (Q9Y337 23-293): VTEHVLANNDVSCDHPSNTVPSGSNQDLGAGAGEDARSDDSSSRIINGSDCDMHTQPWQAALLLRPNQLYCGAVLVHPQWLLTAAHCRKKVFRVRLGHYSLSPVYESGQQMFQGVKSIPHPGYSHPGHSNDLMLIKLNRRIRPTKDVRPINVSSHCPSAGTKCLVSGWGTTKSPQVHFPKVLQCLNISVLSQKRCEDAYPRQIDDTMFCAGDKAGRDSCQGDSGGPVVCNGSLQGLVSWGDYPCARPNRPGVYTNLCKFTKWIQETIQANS
Protocol: ITC experiments were performed on a MicroCal iTC200 calorimeter (GE Healthcare, Uppsala, Sweden) at 298.15 K with a stirring speed of 750 revolutions per minute. Concentrated (450 μM) ligand solutions were injected into protein (KLK5) solution (20 μM, 280 μL sample volume) in the sample cell. Injection volumes were 2 μL for I10H and Analogue 1 and 1 μL for Analogue 2 and 6 with a spacing of 120 seconds between each injection. Concentrations of ligands were determined by dried weight and they were reconstituted to 10 mM stock in H2O. Concentration of KLK5 was determined by UV280 calculated with an extinction coefficient of 38680 and molecular weight of 32KDa (including weight of glycosylation). The protein solution were buffer exchanged using spin column to 1xPBS (137 mM NaCl, 2.7 mM KCl, 4.3 mM Na2HPO4, 1.47 mM KH2PO4 pH 8.0) or 20 mM MES buffer (with 150 mM NaCl, pH 5.5). Ligand stocks were diluted in those buffers (4.5 μL + 95.5 μL buffer), and then equal v/v % of H2O was added to the protein solution after buffer exchange to ensure matching buffer contents. Heat of dilution was undetectable in control experiments. Data were analyzed using OriginLab version 7.0.

KLK14 = target: T2, KLK14 (Homo sapiens, UniProt Q9P0G3); format: biochemical
T2 construct: purchased R&D
T2 sequence (Q9P0G3 25-251): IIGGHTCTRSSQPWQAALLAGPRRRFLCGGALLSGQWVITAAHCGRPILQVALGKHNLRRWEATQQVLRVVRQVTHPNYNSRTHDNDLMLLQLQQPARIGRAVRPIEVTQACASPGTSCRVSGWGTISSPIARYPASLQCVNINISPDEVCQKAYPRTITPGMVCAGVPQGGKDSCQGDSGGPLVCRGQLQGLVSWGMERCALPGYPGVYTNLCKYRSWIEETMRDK
Protocol: (§1) All assays were performed on 96-well microplates and the change in relative fluorescence unit (RFU) was measured by fluorescence spectrometer (BMG FLUOstar OPTIMA). […] Stock solution of Boc-VPR-AMC was prepared by dissolving the solid in dimethyl sulfoxide to 100 mM and 10 mM for MeOSuc-AAPV. For BODIPY_FL casein, it was reconstituted to 1 mg/mL in 1xPBS. […] The % of inhibition was calculated by the following equation: % of Inhibition=(1−(Sample RFU − Min RFU)/(Max RFU − Min RFU)) X100
(§2) Each inhibition curves were done in triplicates with a minimum of five concentration points fitted. Fitting of each curve was done using SigmaPlot with the Four Parameter Logistic Function and the IC50 calculated. […] All tested compounds were reconstituted to stock solution in water.
KLK7 and KLK14 were activated by addition of 1 mM f/c CaCl2 (Sigma, Dorset, U.K.), 0.05% v/v Brij35 (Sigma, Dorset, U.K.), 20 nM f/c thermolysin (Sigma, Dorset, U.K.) and incubated at 37°C for 1 hour. The reaction was stopped by addition of ethylenediaminetetraacetic acid (EDTA, 50 mM f/c). […] The RFU value reached by the thermolysin control was used as the minimum RFU for calculating the % of inhibition for KLK7.
(§3) The diluent for all the tested compounds, protein and substrate (except KLK7, which was done with 10 mM Tris pH 7.8) was 1xPBS pH 8.0–8.9. […] 20μL of the ligand-protein mixture was pipetted to a well of a 96-well microplate in triplicates. The reaction was started by addition of 90–100 μL of the diluted substrate solution (contained 0.05% v/v Brij35) and the plate incubated at 25°C but 37°C for KLK7. RFU reading for each well was taken 6 minutes (trypsin) or 15 minutes (KLK14, KLK5, KLK8, matriptase, human neutrophil elastase, porcine pancreatic elastase 1, plasma kallikrein and plasmin) or 20 hours (KLK7) after substrate addition.

Bovine Trypsin = target: T3, Bovine Trypsin (Bos taurus, UniProt P00760)
T3 construct: purchased Sigma
T3 sequence (P00760 24-246): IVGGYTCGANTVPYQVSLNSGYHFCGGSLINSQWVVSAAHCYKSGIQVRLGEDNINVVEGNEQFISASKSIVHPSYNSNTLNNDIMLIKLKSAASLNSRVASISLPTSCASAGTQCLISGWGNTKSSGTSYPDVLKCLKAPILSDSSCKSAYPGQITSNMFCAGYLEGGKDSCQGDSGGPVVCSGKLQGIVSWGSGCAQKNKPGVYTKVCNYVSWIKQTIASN
Protocol: as §1, §2, §3

Row | Compound | Kd (KLK5) | Stoichiometry (N) (KLK5; 1xPBS pH 8.0, 25°C) | ΔH (KLK5; 1xPBS pH 8.0, 25°C) | ΔS (KLK5; 1xPBS pH 8.0, 25°C) | ΔG (KLK5) | Ka (KLK5) | IC50 (KLK14) | IC50 (Bovine Trypsin) | increase in binding affinity for KLK5 from I10H (KLK5; ITC Kd) | Kd (KLK5; 1xPBS pH 8.0, 25°C, read-out: ITC Kd) | IC50 (KLK14; enzyme 10 nM, Boc-VPR-AMC 45 μM, 25°C, 15 minutes) | fold potency drop on KLK14 compared to native SFTI (KLK14; from Table 3 IC50) | IC50 (Bovine Trypsin; enzyme 10 nM, Boc-VPR-AMC 21 μM, 25°C, 6 minutes)
1 | CC[C@H](C)[C@@H]1NC(=O)[C@H](CO)NC(=O)[C@H](CCCCN)NC(=O)[C@H]([C@@H](C)O)NC(=O)[C@@H]2CSSC[C@H](NC(=O)[C@H](Cc3c[nH]cn3)NC(=O)[C@@H]3CCCN3C(=O)[C@@H]3CCCN3C1=O)C(=O)N[C@@H](Cc1c[nH]c3ccccc13)C(=O)N1CCC[C@H]1C(=O)N[C@@H](CC(=O)O)C(=O)NCC(=O)N[C@@H](CCCNC(=N)N)C(=O)N2 [Analogue 2] (cyclo(CTKSIPPHCWPDGR); disulfide 1-9) | 96 nM | 1.01±0.01 | 4.196 ± 0.065 kcal/mol | 46.2 cal mol^-1 kelvin^-1 | -9.579 kcal/mol | 1.0E7±1.8E6 | 85 ± 6 nM | 20 ± 0.2 nM |  |  |  |  | 
2 | CC[C@H](C)[C@@H]1NC(=O)[C@H](CO)NC(=O)[C@H](CCCNC(=N)N)NC(=O)[C@H]([C@@H](C)O)NC(=O)[C@@H]2CSSC[C@H](NC(=O)[C@H](Cc3c[nH]cn3)NC(=O)[C@@H]3CCCN3C(=O)[C@@H]3CCCN3C1=O)C(=O)N[C@@H](Cc1c[nH]c3ccccc13)C(=O)N1CCC[C@H]1C(=O)N[C@@H](CC(=O)O)C(=O)NCC(=O)N[C@@H](CCCNC(=N)N)C(=O)N2 [Analogue 6] (cyclo(CTRSIPPHCWPDGR); disulfide 1-9) | 20 nM | 1.01±0.01 | 2.014 ± 0.017 kcal/mol | 42.0 cal mol^-1 kelvin^-1 | -10.51 kcal/mol | 5.0E7±1.2E7 | 24 ± 2 nM | 23 ± 1 nM | around 25 times |  |  |  | 
3 | CC[C@H](C)[C@@H]1NC(=O)[C@H](CO)NC(=O)[C@H](CCCCN)NC(=O)[C@H]([C@@H](C)O)NC(=O)[C@@H]2CSSC[C@H](NC(=O)[C@H](Cc3c[nH]cn3)NC(=O)[C@@H]3CCCN3C(=O)[C@@H]3CCCN3C1=O)C(=O)N[C@@H](Cc1ccccc1)C(=O)N1CCC[C@H]1C(=O)N[C@@H](CC(=O)O)C(=O)NCC(=O)N[C@@H](CCCNC(=N)N)C(=O)N2 [Analogue I10H] (cyclo(CFPDGRCTKSIPPH); disulfide 1-7) |  | 1.06±0.02 | 1.963 ± 0.051 kcal/mol | 35.5 cal mol^-1 kelvin^-1 | -8.621 kcal/mol | 2.1E6±5.6E5 |  |  |  | 485 nM | 470 ± 47 nM | ~20 fold | 46 ± 2 nM
